In patent US11021461B2, “Artificial catalyst system for selective acylation of chromosome protein” (THE UNIVERSITY OF TOKYO, priority 2015, dated 2021):
Each block holds one compound with its values, some of them ahead of it. Square brackets hold non-standard residues; d marks the D form. Peptide text beside a SMILES is read from it. * marks the point of attachment. ξ: configuration not given here. Thr(3ξ) = CC(O)[C@H](N)C(=O)O; X1 = CN(CCC(=O)*)c1ccnc(CS)c1; ξR = N=C(N)NCCCC(N)C(=O)O; ξS = NC(CO)C(=O)O

Tests used:
Format in all cases: biochemical
[1] = biological target: T1, histones (reconstituted nucleosome) (Homo sapiens, UniProt P04908+P06899+P62805+P68431); assay: Protein selective acetylation of reconstituted nucleosome mixed with cytoplasm fraction (western blotting, acetylated lysine antibody); details: reconstituted nucleosome + cytoplasm fraction 15%, Ligand-DSH 2 to 5 μM, acyl donor 1 mM, TCEP 100 μM, room temperature, 5 hours; FIG. 3A
T1 construct: made in house
Text: (§1) Proteins were separated on a 4-20% SDS-PAGE gel, and transferred to a PVDF membrane, followed by blocking with 5% skim milk suspended in TBST for the reaction between the PVDF membrane and primary antibodies. The primary antibodies used were as follows.
(§2) Acetylated-lysine antibody (#9441, Cell Signaling), anti-acetyl Histone H4 (Lys77) (ABE186, Millipore), anti-acetyl Histone H2B (Lys120) (ab176430, Abcam), malonylated-lysine antibody (PTM-901, PTM Biolabs), glutarylated-lysine antibody (PTM-1151, PTM Biolabs), butyrylated-lysine antibody (PTM-301, PTM Biolabs), 2-hydroisobutyrylated antibody (PTM-801, PTM Biolabs), streptavidin-HRP (#3999S, Cell Signaling).
(§3) After washing with TBST, a secondary antibody (Anti-Rabbit IgG, HRP-linked, NA934V, GE) was reacted. The PVDF membrane was treated with a chemilluminescent detection reagent Luminata Forte Western HRP Substrate (Millipore), and the detection was performed using ImageQuant LAS 4000 (GE healthcare life sciences).
(§4) A buffer solution (20 mM Tris-HCl, pH 7.5) containing a reconstituted nucleosome (33 μg/mL 601 DNA) and a cytoplasm fraction (15%) was added with Ligand-DSH (2 to 5 μM), acyl CoA (1 mM), and TCEP (100 μM), followed by reaction at room temperature for 5 hours. Thereafter, western blotting was performed.
First, protein selectivity was evaluated. A reconstituted nucleosome prepared in accordance with a known method (Tachiwana, H. et al., Proceedings of the National Academy of Sciences of the United States of America 2010, 107, 10454-10459) and cytoplasm fractions acquired from living cells were mixed. Then, evaluation was carried out on whether or not the newly developed catalyst could selectively acetylate histones by western blotting using an acetylation lysine antibody (FIG. 3A).

[2] = biological target: T2, reconstituted nucleosome (H2BK120, H4K77) (Homo sapiens, UniProt P04908+P06899+P62805+P68431); assay: Lysine residue selective acetylation of reconstituted nucleosome (western blotting, residue-selective acetylated lysine antibodies); details: with acetyl CoA, FIG. 3B
T2 construct: made in house
Text: as §1, §2
as §3, with “sciences). […]” for “sciences).”
Next, the selectivity of lysine residues in histones was evaluated. A similar reaction was evaluated by western blotting using a residue-selective acetylation lysine antibody.

[3] = biological target: T1, histones (reconstituted nucleosome); assay: Acylation other than acetylation with catalyst and various acyl CoA (western blotting); details: catalyst with the corresponding acyl CoA; FIG. 9
Text: as §1, §2, §3, §4
In light of the above, a study was carried out on whether or not acylation other than acetylation would be possible using the developed catalyst.

reconstituted nucleosome = biological target: T3, reconstituted nucleosome (Homo sapiens, UniProt P04908+P06899+P62805+P68431); assay: Yield determination by LC-MS/MS and exhaustive analysis of lysine residue selectivity; details: for lysine residue selectivity: acetylation of reconstituted nucleosome, FIGS. 5 and 6
T3 construct: made in house
Method: Cooled trichloroacetic acid (30 μL) was added, and the resultant was placed on ice for 30 minutes. After the centrifugation (4° C., 15000 rpm, 5 minutes), the supernatant was removed. After further centrifugation (4° C., 15000 rpm, 1 minute), the supernatant was again removed. Cooled acetone (450 μL) was added. After the centrifugation (4° C., 15000 rpm, 5 minutes), the supernatant was removed. After further centrifugation (4° C., 15000 rpm, 1 minute), the supernatant was again removed. The above procedure was repeated once more. […] A 1M sulfuric acid (25 μL) was added and placed on ice for 1 hour, followed by centrifugation (4° C., 15000 rpm, 5 minutes), and the supernatant was collected. Centrifugation (4° C., 15000 rpm, 1 minute) was performed again to collect the supernatant to combine with the earlier supernatant. The resultant was added with acetone (500 μL), followed by sufficient stirring, and was placed overnight at −30° C. After the centrifugation (4° C., 15000 rpm, 5 minutes), the supernatant was removed. After further centrifugation (4° C., 15000 rpm, 1 minute), the supernatant was again removed. After drying was performed with a centrifugal evaporator for 10 minutes, an aqueous solution of ammonium bicarbonate (0.1 M, 20 μL) was added. The resultant was added with a mixture of propionic anhydride and methanol (1:3, 20 μL) prepared immediately before, further added with ammonia water (15 μL), and was placed at room temperature for 30 minutes. Drying was performed with a centrifugal evaporator for 75 minutes, followed by treatment with a digestive enzyme.
In the case of trypsin: an aqueous solution of ammonium bicarbonate (0.1M, 50 μL) and trypsin (1 μg) were added, followed by reaction at 37° C. for 21 hours.
In the case of chymotrypsin: 100 mM Tris-HCl, 10 mM CaCl2 (50 μL, pH8.0), and chymotrypsin (8 μg) were added, followed by reaction at 25° C. for 21 hours.
A 5% aqueous solution of formic acid (25 μL) was added, followed by drying with a centrifugal evaporator for 75 minutes. The residue was dissolved in a 0.1% aqueous solution of formic acid (15 μL), and the resultant was used for LC-MS/MS.
Eksigent ekspert™ MicroLC 200
ESI-Q-TOF MS, positive-ion mode.
Precursor ions are designated, and for each of the precursor ions, 2 to 4 MS/MS fragment ions having the highest strength were selected. Ion extraction (±0.5 Da) was performed for the designated precursor ions and the MS/MS fragment ions, and the yield was calculated in accordance with the equation below.
For a chromatogram obtained by performing measurement in an Information Dependent Acquisition Mode, the yield was determined in accordance with the following equation from the peak area subjected to ion extraction (±0.5 Da) after designating the precursor ions. yield (%)=[A/A+P]×100 (here, A represents a peak area of an acetylated peptide and P represents a peak area of a propionylated peptide)

cytoplasm proteins = assay: Comparison of reactivity of acetyl group donors with cytoplasm proteins (western blotting, anti-acetylated lysine antibody); details: acetyl group donor 1 mM, cytoplasm fraction 20%, room temperature, 10 hours; FIG. 1B
Method: Approximately 10^6 cells were detached from a culture dish by a trypsin treatment. After washed with PBS, the cell pellets were suspended in a cooled, cell lysis buffer [50 mM Tris (pH 7.5), 300 mMNaCl, 0.3% Triton X-100, protease inhibitor cocktail, and 1 mM PMSF], and placed on ice for 30 minutes. After the centrifugation (4° C., 1500 rpm, 2 minutes), the supernatant was collected as a cytoplasm fraction.
as §1, §2
as §3, with “sciences). […]” for “sciences).”

[4] = Ligand-DSH 2 μM, acetyl CoA 1 mM, TCEP 100 μM, 5 hours

Structure (SMILES): CC(=O)NCCSC(C)=O
histone-selective acetylation [1]: histone-selective acetylation was observed in the same way

Structure (SMILES): CSCC[C@H](NC(=O)CNC(=O)CCN(C)c1ccnc(CS)c1)C(=O)NC(CCCNC(=N)N)C(=O)N[C@@H](CC(C)C)C(=O)NC(CCCNC(=N)N)C(=O)N[C@@H](CO)C(=O)NCC(=O)N[C@@H](CCCNC(=N)N)C(=O)NC(CO)C(=O)N[C@H](C(=O)NCC(N)=O)C(C)O (stereo partly shown) [LANA-DSH] (X1-GM[ξR]L[ξR]SGR[ξS][Thr(3ξ)]G-NH2)
histone-selective acetylation [1]: histone-selective acetylation was achieved | acetylation of H2BK120 (western blotting) ([2]; anti-acetyl Histone H2B (Lys120)): strongly acetylated | 2-hydroxy-iso-butyrylation [3]: enabled | biotinylation [3]: enabled | butyrylation [3]: enabled | glutarylation [3]: enabled | malonylation [3]: enabled | acetylation yield of H2BK120 (reconstituted nucleosome; [4]): 54% | lysine residue selectivity (reconstituted nucleosome): extremely high

Structure (SMILES): CON(C(C)=O)C(C)=O [NMD, N-methoxydiacetamide]
non-selective acetylation of cytoplasm proteins (cytoplasm proteins): non-selectively acetylated a large quantity of protein

acetylation of H4K77 (western blotting) ([2]; anti-acetyl Histone H4 (Lys77)): strongly acetylated | acetylation yield of H3K36 (reconstituted nucleosome; [4]): 14% | acetylation yield of H3K56 (reconstituted nucleosome; [4]): 9% | acetylation yield of H4K77 (reconstituted nucleosome; [4]): 14% | lysine residue selectivity (reconstituted nucleosome): high
Structure (SMILES): CN(CCCNC(=O)CCN(C)c1ccnc(CS)c1)CCCNC(=O)c1cc(NC(=O)c2cc(NC(=O)c3cc(NC(=O)c4nc(NC(=O)CCCNC(=O)c5cc(NC(=O)c6cc(NC(=O)c7cc(NC(=O)c8nccn8C)cn7C)cn6C)cn5C)cn4C)cn3C)cn2C)cn1C [PIP-DSH]
histone-selective acetylation [1]: histone-selective acetylation was achieved

histone-selective acetylation [1]: acetylation did not proceed
Structure (SMILES): CC(=O)SCCNC(=O)CCNC(=O)[C@H](O)C(C)(C)COP(=O)(O)OP(=O)(O)OC[C@H]1O[C@@H](n2cnc3c(N)ncnc32)[C@H](O)[C@@H]1OP(=O)(O)O [acetyl CoA, reference compound]
non-selective acetylation of cytoplasm proteins (cytoplasm proteins): did not cause such non-selective acetylation
